Laboratory results published in patent US7507817B2, “Prostaglandin prodrugs” (Allergan, Inc., priority 2006, dated 2009).
Blank lines part the entries; values can stand above or below the compound they belong to.

Assays:
Format in all cases: in vivo
[1] = test system: normotensive dogs; experiment: Intraocular pressure (IOP) decrease in normotensive dogs; conditions: once daily for 5 days
Method: (§1) (Z)-7-[(1R,2S,3R,5R)-5-Chloro-2-(3,5-dichloro-phenoxymethyl)-3-hydroxy-cyclopentyl]-hept-5-enoic acid 2-hydroxy-ethyl ester (1) was tested in normotensive dogs at 0.1%, dosing once daily for 5 days. The maximum intraocular pressure (IOP) decrease from baseline was 6.6 mmHg (40%) at 78 h; the maximum ocular surface hyperemia (OSH) score was 0.9 at 50 h. This compound was also tested in laser-induced hypertensive monkeys, using one single day dose. At 0.1%, the maximum IOP decrease from baseline was 12.5 mmHg (33%) at […]
(§2) (Z)-7-[(1R,2S,3R,5R)-5-Chloro-2-(3,5-dichloro-phenoxymethyl)-3-hydroxy-cyclopentyl]-hept-5-enoic acid 2-morpholin-4-yl-ethyl ester (2) was tested in normotensive dogs at 0.1%, dosing once daily for 5 days. The maximum intraocular pressure (IOP) decrease from baseline was 5.1 mmHg (34%) at 78 h; the maximum ocular surface hyperemia (OSH) score was 0.9 at 30 h. This compound was also tested in laser-induced hypertensive monkeys, using one single day dose. At 0.1%, the maximum IOP decrease from baseline was 11.9 mmHg (32%) at 6 h.
(§3) (Z)-7-[(1R,2S,3R,5R)-5-Chloro-2-(3,5-dichloro-phenoxymethyl)-3-hydroxy-cyclopentyl]-hept-5-enoic acid was tested at multiple concentrations in normotensive dogs, dosing once daily for 5 days. At 0.05%, the maximum IOP decrease from baseline was 4.3 mmHg (30%) at 6 h; the maximum OSH score was 0.6 at 6 h. At 0.1%, the maximum IOP decrease from baseline was 4.8 mmHg (34%) at 102 h; the maximum OSH score was 1.3 at 6 h. This compound was also tested in laser-induced hypertensive monkeys, using one single day dose. At 0.1%, the maximum IOP decrease from baseline was 6 mmHg (19%) at 6 h.
(§4) (Z)-7-[(1R,2S,3R,5R)-5-Chloro-2-(3,5-dichloro-phenoxymethyl)-3-hydroxy-cyclopentyl]-hept-5-enoic acid isopropyl ester was tested at multiple concentrations in normotensive dogs, dosing once daily for 5 days. At 0.01%, the maximum intraocular pressure (IOP) decrease from baseline was 1.1 mmHg (7%) at 2 h; the maximum ocular surface hyperemia (OSH) score was 0.6 at 74 h. At 0.05%, the maximum intraocular pressure (IOP) decrease from baseline was 2.8 mmHg (18%) at 6 h; the maximum ocular surface hyperemia (OSH) score was 0.6 at 74 h. This compound was also tested in laser-induced hypertensive monkeys, using one single day dose. At 0.01%, the maximum IOP decrease from baseline was 6.8 mmHg (18%) at 6 h. At 0.05%, the maximum IOP decrease from baseline was 6 mmHg (16%) at 2 h.

[2] = test system: normotensive dogs; experiment: Ocular surface hyperemia (OSH) score in normotensive dogs; conditions: once daily for 5 days; for maximum OSH score: maximum at 6 h
Method: as §1, §2, §3, §4

[3] = test system: laser-induced hypertensive monkeys; experiment: IOP decrease in laser-induced hypertensive monkeys; conditions: one single day dose
Method: as §1, §2, §3, §4

- maximum ocular surface hyperemia (OSH) score ([2]; 0.1%, maximum at 30 h): 0.9
SMILES: O=C(CCC/C=C\C[C@@H]1[C@@H](COc2cc(Cl)cc(Cl)c2)[C@H](O)C[C@H]1Cl)OCCN1CCOCC1 [Compound 2, (Z)-7-[(1R,2S,3R,5R)-5-Chloro-2-(3,5-dichloro-phenoxymethyl)-3-hydroxy-cyclopentyl]-hept-5-enoic acid 2-morpholin-4-yl-ethyl ester]
- maximum intraocular pressure (IOP) decrease from baseline ([1]; 0.1%, maximum at 78 h): 5.1 mmHg
- maximum intraocular pressure (IOP) decrease from baseline (percent) ([1]; 0.1%, maximum at 78 h): 34%
- maximum IOP decrease from baseline ([3]; 0.1%, maximum at 6 h): 11.9 mmHg
- maximum IOP decrease from baseline (percent) ([3]; 0.1%, maximum at 6 h): 32%

- maximum ocular surface hyperemia (OSH) score ([2]; 0.01%, maximum at 74 h): 0.6
- maximum ocular surface hyperemia (OSH) score ([2]; 0.05%, maximum at 74 h): 0.6
SMILES: CC(C)OC(=O)CCC/C=C\C[C@@H]1[C@@H](COc2cc(Cl)cc(Cl)c2)[C@H](O)C[C@H]1Cl [(Z)-7-[(1R,2S,3R,5R)-5-Chloro-2-(3,5-dichloro-phenoxymethyl)-3-hydroxy-cyclopentyl]-hept-5-enoic acid isopropyl ester]
- maximum intraocular pressure (IOP) decrease from baseline ([1]; 0.01%, maximum at 2 h): 1.1 mmHg
- maximum intraocular pressure (IOP) decrease from baseline (percent) ([1]; 0.01%, maximum at 2 h): 7%
- maximum IOP decrease from baseline ([1]; 0.05%, maximum at 6 h): 2.8 mmHg
- maximum IOP decrease from baseline (percent) ([1]; 0.05%, maximum at 6 h): 18%
- maximum IOP decrease from baseline ([3]; 0.01%, maximum at 6 h): 6.8 mmHg
- maximum IOP decrease from baseline (percent) ([3]; 0.01%, maximum at 6 h): 18%
- maximum IOP decrease from baseline ([3]; 0.05%, maximum at 2 h): 6 mmHg
- maximum IOP decrease from baseline (percent) ([3]; 0.05%, maximum at 2 h): 16%

- maximum ocular surface hyperemia (OSH) score ([2]; 0.1%, maximum at 50 h): 0.9
SMILES: O=C(CCC/C=C\C[C@@H]1[C@@H](COc2cc(Cl)cc(Cl)c2)[C@H](O)C[C@H]1Cl)OCCO [Compound 1, (Z)-7-[(1R,2S,3R,5R)-5-Chloro-2-(3,5-dichloro-phenoxymethyl)-3-hydroxy-cyclopentyl]-hept-5-enoic acid 2-hydroxy-ethyl ester]
- maximum intraocular pressure (IOP) decrease from baseline ([1]; 0.1%, maximum at 78 h): 6.6 mmHg
- maximum intraocular pressure (IOP) decrease from baseline (percent) ([1]; 0.1%, maximum at 78 h): 40%
- maximum IOP decrease from baseline ([3]; 0.1%, maximum at 4): 12.5 mmHg
- maximum IOP decrease from baseline (percent) ([3]; 0.1%, maximum at 4): 33%

- maximum OSH score ([2]; 0.05%): 0.6
- maximum OSH score ([2]; 0.1%): 1.3
SMILES: O=C(O)CCC/C=C\C[C@@H]1[C@@H](COc2cc(Cl)cc(Cl)c2)[C@H](O)C[C@H]1Cl [(Z)-7-[(1R,2S,3R,5R)-5-Chloro-2-(3,5-dichloro-phenoxymethyl)-3-hydroxy-cyclopentyl]-hept-5-enoic acid]
- maximum IOP decrease from baseline ([1]; 0.05%, maximum at 6 h): 4.3 mmHg
- maximum IOP decrease from baseline (percent) ([1]; 0.05%, maximum at 6 h): 30%
- maximum IOP decrease from baseline ([1]; 0.1%, maximum at 102 h): 4.8 mmHg
- maximum IOP decrease from baseline (percent) ([1]; 0.1%, maximum at 102 h): 34%
- maximum IOP decrease from baseline ([3]; 0.1%, maximum at 6 h): 6 mmHg
- maximum IOP decrease from baseline (percent) ([3]; 0.1%, maximum at 6 h): 19%
